PMC8401736, “Identification and In Silico Characterization of Novel Helicobacter pylori Glucose-6-Phosphate Dehydrogenase Inhibitors” (Molecules, 2021)

Tests used:
recombinant human HsG6PD = recombinant human HsG6PD (Homo sapiens, UniProt P11413); test: Inhibition of recombinant human HsG6PD at 400 μM; assay type: biochemical; conditions: 400 μM compound
[1] = tested on: recombinant HpG6PD (H. pylori glucose-6-phosphate dehydrogenase); test: High-throughput screening of HpG6PD residual activity at 400 μM; assay type: biochemical, Helicobacter pylori; conditions: 400 μM compound, 5% DMSO, 0.2 mg/mL HpG6PD, 37 °C for two hours
Experimental: (§1) Enzymatic activity was spectrophotometrically determined following the reduction of NADP^+ at 340 nm. The standard reaction mix contains 50 mM Tris-HCl, pH 7.6, 3 mM MgCl2, 200 µM glucose 6 phosphate and 100 µM NADP^+. The reaction was started with the addition of 1 µg of the purified HpG6PD. One unit of activity was defined as the amount of HpG6PD that catalyzes the oxidation of 1 µmol of glucose 6 phosphate per minute.
A chemical library of 55 compounds was evaluated through high-throughput screening (HTS) assays to determine those compounds with the ability to reduce the catalytic activity of the recombinant HpG6PD. Dr. Gabriel Navarrete-Vázquez from the Pharmacy Faculty of the Autonomous University of the State of Morelos provided the chemical compounds [32]. These compounds were selected based on the previously reported chemical inhibitors of human G6PD [21], prepared at a final concentration of 400 μM in 5% dimethyl sulfoxide (DMSO) (Sigma Aldrich, St. Louis, MO, USA), incubated with 0.2 mg/mL of HpG6PD (200 ng total) at 37 °C for two hours, and the HpG6PD residual activity was measured. In addition, the HpG6PD protein was incubated with 5% DMSO and used as a control.

HpG6PD enzyme = HpG6PD enzyme (Helicobacter pylori, UniProt P56110); test: Inactivation assays of the HpG6PD enzyme with increasing concentrations of compounds; assay type: biochemical; conditions: for inhibition at 800 µM: 2 h, read-out: loss of HpG6PD activity; for IC50: from plots of residual activity after incubation for 2 h at 37 °C, 200 μg/mL HpG6PD; for reduction of HpG6PD activity: at the highest concentration tested
Chain of HpG6PD enzyme (P56110 whole entry): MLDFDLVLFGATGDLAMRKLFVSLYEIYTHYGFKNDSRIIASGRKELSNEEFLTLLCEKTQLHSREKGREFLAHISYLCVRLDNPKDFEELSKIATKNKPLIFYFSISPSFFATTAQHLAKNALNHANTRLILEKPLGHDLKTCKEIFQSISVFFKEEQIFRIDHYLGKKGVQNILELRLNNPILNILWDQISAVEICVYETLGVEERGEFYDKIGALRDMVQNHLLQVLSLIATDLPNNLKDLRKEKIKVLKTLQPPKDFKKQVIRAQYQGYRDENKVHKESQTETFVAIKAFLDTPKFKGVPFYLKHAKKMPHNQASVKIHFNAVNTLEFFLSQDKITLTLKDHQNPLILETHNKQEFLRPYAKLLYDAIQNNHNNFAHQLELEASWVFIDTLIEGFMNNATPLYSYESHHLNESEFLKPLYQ
Experimental: Subsequently, we performed inactivation assays using different concentrations of compounds to analyze their concentration–activity effect. […] As each of the compound’s concentrations was increased, the residual HpG6PD activity decreased in different degrees. For example, the exposure of the HpG6PD enzyme to YGC-3 and YGC-4 induced the abolition of the enzyme activity in a very similar manner (Figure 3A), the HpG6PD enzyme lost 80% of its activity at 800 µM, but when the enzyme was incubated with YGC-1, we observed a 91% loss in activity at 800 μM. On the other hand, MGD-1 and MGD-2 inactivated the HpG6PD enzyme, with 80% and 72% reductions, respectively, at the highest concentration tested (Figure 3B). […] In contrast, JMM-3 inhibited the HpG6PD enzyme at 80% with 800 µM (Figure 3D).
Figure 3 Inactivation assays of the HpG6PD enzyme with chemical compounds. The HpG6PD protein was adjusted at a final concentration of 200 μg/mL and incubated with increasing concentrations of the (A) YGC family; (B) MGD family; (C) TDA-1 compound; and (D) JMM-3 compound. The residual activity was determined after 2 h of incubation at 37 °C. […] The values represent the mean ± standard deviation from three independent experiments, and standard errors were lower than 5%.
as §1

Chain of recombinant human HsG6PD (P11413 whole entry): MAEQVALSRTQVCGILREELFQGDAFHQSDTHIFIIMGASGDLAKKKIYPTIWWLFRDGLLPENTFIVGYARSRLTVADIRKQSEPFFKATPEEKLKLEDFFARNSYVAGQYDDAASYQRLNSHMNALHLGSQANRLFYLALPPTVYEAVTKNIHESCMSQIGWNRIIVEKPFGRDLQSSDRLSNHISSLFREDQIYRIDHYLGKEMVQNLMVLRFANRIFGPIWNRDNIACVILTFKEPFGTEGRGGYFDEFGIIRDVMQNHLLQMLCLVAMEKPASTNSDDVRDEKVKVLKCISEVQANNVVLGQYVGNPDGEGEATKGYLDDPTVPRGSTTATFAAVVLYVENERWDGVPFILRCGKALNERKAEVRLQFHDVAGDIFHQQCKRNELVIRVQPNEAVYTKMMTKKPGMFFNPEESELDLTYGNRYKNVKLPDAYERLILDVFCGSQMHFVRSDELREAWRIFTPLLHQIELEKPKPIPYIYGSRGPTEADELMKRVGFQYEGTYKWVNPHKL

| SMILES | inhibition at 400 µM (recombinant human HsG6PD) [%] | HpG6PD Inhibition (%) at (400 μM) [1] [%] | inhibition at 800 µM (HpG6PD enzyme) [%] | IC50 (HpG6PD enzyme) [µM] | reduction of HpG6PD activity (HpG6PD enzyme; incubation for 2 h at 37 °C) [%] | HpG6PD Inhibition (%) at (400 μM) ([1]; 400 µM) [%] | loss of HpG6PD activity (HpG6PD enzyme; by 500 µM, incubation for 2 h at 37 °C) |
| --- | --- | --- | --- | --- | --- | --- | --- |
| COc1cc(CCC(=O)O)ccc1OCc1ccc(-c2ccccc2C#N)cc1 [JMM-3] | 3 | 67 | 80 | 304 |  |  |  |
| O=C(O)CCc1ccc(NC(=O)CSc2nc3ccccc3[nH]2)cc1 [MGD-1] | 4 | 50 |  | 465 | 80 |  |  |
| O=C(O)CCc1ccc(NC(=O)CSc2nc3ccccc3o2)cc1 [MGD-2] | 2 | 55 |  | 340 | 72 |  |  |
| COc1cc(/C=C2\SC(=O)NC2=O)ccc1OCCN1CCCCC1 [TDA-1] | 10 |  |  | 204 |  | 91 | total loss of activity |
| COc1ccc(/C=C2\SC(=O)NC2=O)cc1OCc1cccc2ccccc12 [YGC-1] | 8 | 84 | 91 | 310 |  |  |  |
| COc1ccc(/C=C2\SC(=O)NC2=O)cc1OCc1cccc(-c2ccccc2)c1 [YGC-3] | 0 | 50 | 80 | 383 |  |  |  |
| COc1ccc(/C=C2\SC(=O)NC2=O)cc1Oc1nc2ccccc2[nH]1 [YGC-4] | 18 | 44 | 80 | 500 |  |  |  |
